From paper PMC5065625, “Structure-mechanism-based engineering of chemical regulators targeting distinct pathological factors in Alzheimer's disease” (Nature Communications, 2016)

Tests used:
[1] = Parallel artificial membrane permeability assay adapted for BBB (PAMPA-BBB); format: in vitro ADME; details: 25 μM, pH 7.4, 4 h
Experimental: PAMPA-BBB experiments were conducted using the PAMPA Explorer kit (pION Inc., Billerica, MA, USA) using previously reported protocols. Compounds (25 μM, 200 μl) in pH 7.4 Prisma HT buffer (pION) were added to the wells of a donor plate (number of replicates=12). The polyvinylidene fluoride (PVDF, […]) filter membrane on the acceptor plate was coated with BBB-1 lipid formulation (5 μl, pION). The acceptor plate was placed on top of the donor plate. Brain sink buffer (BSB, 200 μl, pION) was added to each well of the acceptor plate and was incubated for 4 h at ambient temperature without stirring. UV–vis spectra of the solutions in the reference, acceptor, and donor plates were measured using a microplate reader. The PAMPA Explorer software v. 3.5 (pION) was used to calculate the −logPe values for compounds. CNS±designations were assigned by comparison with compounds that were identified in previous reports.

[2] = system: cationic organic radical of ABTS; experiment: Trolox equivalent antioxidant capacity (TEAC) assay in M17 cell lysates; format: biochemical, human; details: relative to Trolox
Experimental: The assay employing M17 cell lysates was conducted following the protocol of the antioxidant assay kit purchased from Cayman Chemical Company (Ann Arbor, MI, USA) with minor modifications. For the antioxidant assay using cell lysates, cells were seeded in a six-well plate and grown to ∼80–90% confluence. Cell lysates were prepared following a previously reported method with modifications. M17 cells were washed once with cold PBS (pH 7.4, GIBCO) and harvested by gently pipetting off adherent cells with cold PBS. The cell pellet was generated by centrifugation (2,000g for 10 min at 4 °C). This cell pellet was sonicated on ice (5 s pulses, three times with 20 s intervals between each pulse) in 2 ml of cold Assay Buffer (5 mM potassium phosphate, pH 7.4, containing 0.9% NaCl and 0.1% glucose). The cell lysates were centrifuged at 5,000g for 10 min at 4 °C. The supernatant was removed and stored on ice until use. For standard and samples in 96-well plates, 10 μl of the supernatant of cell lysates was delivered followed by addition of compound, metmyoglobin, ABTS and H2O2 in order. After 5 min incubation at room temperature on a shaker, absorbance values at 750 nm were recorded. The antioxidant concentration was calculated according to the measured absorbance (% inhibition=100 × (A0 – A)/A0, where A0 is absorbance of the supernatant of cell lysates). The measurements were conducted in triplicate.

[3] = Stability in solution (UV–vis, ESI–MS), metal-free; format: physicochemical; details: for k, metal-free (rate of decay of the absorbance peak) / t1/2, metal-free / Stability in solution: 50 μM; for Stability in solution: metal-free, HEPES pH 7.4, 37 °C, 5 h
Experimental: The stability of 1–4 (50 μM) in the absence and presence of CuCl2 (25 μM) was monitored every 10 min using UV–vis for 5 h in buffer ([…], pH 7.4, […]; 1% DMSO) at 37 °C. The resulting spectra were corrected for baseline shifts at 800 nm and the half-life and rate of decay of the absorbance at 250, 385 and 400 nm for 4, [Cu(II)+1], and [Cu(II)+3], respectively, was calculated using the first-order exponential decay function as implemented in Origin 9.1 (OrginLab Corp., Northampton, MA, USA). Additionally, the species present were identified using ESI–MS. Samples containing 1–4 (50 μM) with or without CuCl2 (25 μM) were incubated in ddH2O (1% DMSO) at 37 °C for the selected time points before being freshly frozen using liquid nitrogen and stored at −80 °C until they were thawed immediately before measurement.

[4] = biological target: T1, Cu(II)–Aβ40/Aβ42 (Homo sapiens, UniProt P05067); experiment: nESI-MS / IM–MS interaction studies with Cu(II); format: binding; details: Aβ40 18 μM, copper(II) acetate 40 μM, compound 120 μM, pH 7.5, 37 °C, 30 min
T1 construct: Aβ40 or Aβ42 was dissolved in ammonium hydroxide
Experimental: All IM–MS experiments were carried out on a Synapt G2 (Waters, Milford, MA)[27][28][29][58]. Samples were ionized using a nano-electrospray source operated in positive ion mode. MS instrumentation was operated at a backing pressure of 2.7 mbar and sample cone voltage of 40 V. The m/z scale was calibrated using 20 mg ml^−1 aqueous cesium iodide. For peptide-metal ligation studies, the aliquots of Aβ peptides (final concentration 18 μM) were sonicated for 5 s before pre-incubation with or without a source of Cu(II) (copper(II) acetate) at 37 °C for 10 min. […] Solution conditions were 100 mM ammonium acetate (pH 7.5) with 1% v/v DMSO. Covalent binding studies with 4 were performed by incubating aliquots of Aβ with the ligand at a ratio of 1:0, 1:5 and 1:25 in water for either 24 h or a week at 25 °C. After incubation the samples were lyophilized for storage until analysis. Immediately before analysis samples were reconstituted to 50 μM peptide concentration in 1,1,1,3,3,3-hexafluoro-2-propanol, sonicated and diluted further to 25 μM for data acquisition. Accurate mass values for ligand-bound complexes were calculated using the monoisotopic peak difference between apo and ligated states with errors reported as a function of two times the s.d. collision cross section (CCS) measurements were externally calibrated using a database of known values in helium, using values for proteins that bracket the likely CCS and ion mobility values of the unknown ions[58][59]. CCS values are the average of six replicates with errors reported as the least square product. This least square analysis combines inherent calibrant error from drift tube measurements (3%)[59]. calibration curve error, and two times the replicate s.d. error. All other conditions are consistent with previously published methods.
Aβ (100 μM) was incubated with 4 (500 μM) in 100 mM ammonium acetate, pH 7.5, without and with the addition of CuCl2 (100 μM) for 1 h at 37 °C without agitation. Before injection into the mass spectrometer, the resulting Aβ was diluted by 10-fold. ESI–MS analysis was performed using a Synapt G2-Si quadrupole time-of-flight mass spectrometer (Waters, Manchester, UK) equipped with electrospray ionization source. The capillary voltage, sampling cone voltage, and source temperature were set to 2.8 kV, 70 V, and 60 °C, respectively. The backing pressure was adjusted to 3.2 mbar.

[5] = HEPES pH 7.4, 150 μM NaCl, 37 °C
[6] = HEPES pH 7.4, 150 μM NaCl, 37 °C, absorbance peak decay

T1 sequence (P05067 672-711): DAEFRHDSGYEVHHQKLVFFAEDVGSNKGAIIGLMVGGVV

−logPe [1]	half-life at 50 μM ([3]; HEPES buffer, pH 7.4, 50 μM, HEPES pH 7.4, 150 μM NaCl, 37 °C, absorbance peak decay, read-out: t1/2, metal-free) [min]	Compound	Free organic radical scavenging ability (TEAC) [2]	k, metal-free (rate of decay of the absorbance peak) [3, 5]	t1/2, metal-free [3, 6]	Stability in solution [3]	Interaction with Aβ in the presence of Cu(II) [4]
4.2(8)	–	COc1cc(NCc2ccccn2)cc(OC)c1 [compound 2, 3,5-dimethoxy-N-(pyridin-2-ylmethyl)aniline]	–	too slow to accurately measure the rate	No noticeable spectral changes were observed over 5 h	stable over 5 h	stable ternary complexes
4.2(2)	–	CN(C)c1ccc(NCc2ccc3ccccc3n2)cc1 [compound 3, N^1,N^1-dimethyl-N^4-(quinolin-2-ylmethyl)benzene-1,4-diamine]	greater capacity than 2	too slow to accurately measure the rate	No noticeable spectral changes were observed over 5 h	changes in its Ultraviolet-Visible (UV-vis) spectra after 5 h of incubation occurring at a very slow rate	Cu–ligand-dependent signals corresponding to a mass 89 Da lighter than the apo Aβ40/Aβ42
4.9(0)	43 ± 5	CN(C)c1ccc(NCc2ccc[nH]2)cc1 [compound 4, N^1-((1H-pyrrol-2-yl)methyl)-N^4,N^4-dimethylbenzene-1,4-diamine]	greater capacity than 2	0.016 ± 0.004 min⁻¹	~40 min	unstable	not shown to bind to Aβ40

Compound	−logPe [1]	half-life at 50 μM ([3]; HEPES buffer, pH 7.4, 50 μM, HEPES pH 7.4, 150 μM NaCl, 37 °C, absorbance peak decay, read-out: t1/2, metal-free) [min]	Free organic radical scavenging ability (TEAC) [2]	k, metal-free (rate of decay of the absorbance peak) [3, 5]	t1/2, metal-free [3, 6]	Stability in solution [3]	Interaction with Aβ in the presence of Cu(II) [4]
Nc1ccc(NCc2ccccn2)cc1 [compound 1, N^1-(pyridin-2-ylmethyl)benzene-1,4-diamine]	5.0(1)	–	greater capacity than 2	too slow to accurately measure the rate	No noticeable spectral changes were observed over 5 h	stable over 5 h	Cu–ligand-dependent signals corresponding to a mass 89 Da lighter than the apo Aβ40/Aβ42
